From patent US5834461A, “Tricyclic benzazepine vasopressin antagonists” (American Cyanamid Company, priority 1997, dated 1998)
Each block holds one compound with its values, some of them ahead of it.

Experiments:
[1] = biological target: vasopressin V1 receptor (rat liver plasma membranes) (Rattus norvegicus, UniProt P30560); assay: Binding Assay to Rat Hepatic V1 Receptors; settings: rat hepatic V1
Method: Rat liver plasma membranes expressing the vasopressin V1 receptor subtypes are isolated by sucrose density gradient according to the method described by Lesko et al., (1973). These membranes are quickly suspended in 50.0 mM Tris.HCl buffer, pH 7.4, containing 0.2% bovine serum albumin (BSA) and 0.1 mM phenylmethylsulfonylfluoride (PMSF) and kept frozen at -70° C. until used in subsequent binding experiments. For binding experiments, the following is added to the wells of a ninety-six well format microtiter plate: 100 μl of 100.0 mM Tris.HCl buffer containing 10.0 mM MgCl2, 0.2% heat inactivated BSA and a mixture of protease inhibitors: leupeptin, 1.0 mg %; aprotinin, 1.0 mg %; 1,10-phenanthroline,2.0 mg %; trypsin inhibitor, 10.0 mg % and 0.1 mM PMSF, 20.0 μl of [phenylalanyl-3,4,5,-^3 H] vasopressin (S.A. 45.1 Ci/mmole) at 0.8 nM, and the reaction initiated by the addition of 80 μl of tissue membranes containing 20 μg of tissue protein. The plates are kept undisturbed on the bench top at room temperature for 120 min. to reach equilibrium. Non-specific samples are assayed in the presence of 0.1 μM of the unlabeled antagonist phenylalanylvasopressin, added in 20.0 μl volume.
For test compounds, these are solubilized in 50% dimethylsulfoxide (DMSO) and added in 20.0 μl volume to a final incubation volume of 200 μl. Upon completion of binding, the content of each well is filtered off, using a Brandel® cell Harvester (Gaithersburg, Md.). The radioactivity trapped on the filter disk by the ligand-receptor complex is assessed by liquid scintillation counting in a Packard LS Counter, with an efficiency of 65% for tritium.

[2] = biological target: T1, rat kidney medullary V2 receptors (Rattus norvegicus, UniProt Q00788); assay: Binding Assay to Rat Kidney Medullary V2 Receptors; settings: rat kidney medullary V2
T1 construct: Medullary tissues from rat kidneys are dissected out; from tissue; host or cells: rat kidney medulla membranes
Method: Medullary tissues from rat kidneys are dissected out, cut into small pieces and soaked in a […] sodium chloride solution containing 1.0 mM EDTA with many changes of the liquid phase, until the solution is clear of blood. The tissue is homogenized in a 0.25M sucrose solution containing 1.0 mM EDTA and 0.1 mM PMSF using a Potter-Elvehjem homogenizer with a teflon pestle. The homogenate is filtered through several layers (4 layers) of cheese cloth. The filtrate is rehomogenized using a dounce homogenizer, with a tight fitting pestle. The final homogenate is centrifuged at 1500×g for 15 min. The nuclear pellet is discarded and the supernatant fluid recentrifuged at 40,000×g for 30 min. The resulting pellet formed contains a dark inner part with the exterior, slightly pink. The pink outer part is suspended in a small amount of 50.0 mM Tris.HCl buffer, pH 7.4. The protein content is determined by the Lowry's method (Lowry et al., J. Biol. Chem., 1953). The membrane suspension is stored at -70° C., in 50.0 mM Tris.HCl, containing 0.2% inactivated BSA and 0.1 mM PMSF in aliquots of 1.0 ml containing 10.0 mg protein per ml of suspension until use in subsequent binding experiments.
For binding experiments, the following is added in μl volume to wells of a 96 well format of a microtiter plate: 100.0 μl of 100.0 mM Tris.HCl buffer containing 0.2% heat inactivated BSA, 10.0 mM MgCl2 and a mixture of protease inhibitors: leupeptin, 1.0 mg %; aprotinin, 1.0 mg %; 1,10-phenanthroline, 2.0 mg %; trypsin inhibitor, 10.0 mg % and 0.1 mM PMSF, 20.0 μl of [^3 H] Arginine^8, vasopressin (S.A. 75.0 Ci/mmole) at 0.8 nM and the reaction initiated by the addition of 80.0 μl of tissue membranes (200.0 μg tissue protein). The plates are left undisturbed on the bench top for 120 min to reach equilibrium. Non-specific binding is assessed in the presence of 1.0 μM of unlabeled ligand, added in 20 μl volume. For test compounds, these are solubilized in 50% dimethylsulfoxide (DMSO) and added in 20.0 μl volume to a final incubation volume of 200 μl. Upon completion of binding, the content of each well is filtered off, using a Brandel® cell Harvester (Gaithersburg, Md.). The radioactivity trapped on the filter disk by the ligand-receptor complex is assessed by liquid scintillation counting in a Packard LS Counter, with an efficiency of 65% for tritium.

[3] = system: vasopressin V2; assay: Vasopressin V2 Antagonist Activity in Conscious Hydrated Rats (diuretic effect); format: in vivo, normal Sprague-Dawley rats; settings: AVP 0.4 μg/kg i.p.
Method: Conscious hydrated rats are treated with compounds under study from 0.1 to 100 mg/kg orally or vehicle. Two to four rats are used for each compound. One hour later, arginine vasopressin (AVP, antidiuretic hormore, ADH) dissolved in peanut oil is administered at 0.4 μg/kg intraperitoneally. Two rats in each test would not receive arginine vasopressin but only the vehicle (peanut oil) to serve as water-loading control. Twenty minutes later each rat is given 30 mL/kg of deionized water orally by gavage and is placed individually in a metabolic cage equipped with a funnel and a graduated glass cylinder to collect urine for four hours. Urine volume is measured and osmolality analyzed by use of a Fiske One-Ten osmometer (Fiske Assoc., Norwood, Mass., USA). Urinary sodium, potassium, and chloride are analyzed by use of ion-specific electrodes in a Beckman E3 (Electrolyte 3) Analyzer. In the following results, […] and decreased osmolality relative to AVP-control indicates activity.

[4] = system: vasopressin V1; assay: Vasopressin V1 Antagonist Activity in Conscious Rats (vasopressin vasopressor response); format: in vivo, rat (spontaneously hypertensive rats); set-up: Average Change: unit not given here
Method: Conscious rats are restrained in a supine position with elastic tape. The area at the base of the tail is locally anesthetized by subcutaneous infiltration with 2% procaine (0.2 ml). Using aseptic technique the ventral caudal tail artery is isolated and a cannula made of PE 10 and 20 (heat-fused) tubing is passed into the lower abdominal aorta. The cannula is secured, heparinized (1000 i.u./cc), sealed and the wound closed with one or two stitches of Dexon 4-0. The caudal vein is also cannulated in the same manner for intravenous drug administration. The duration of the surgery is approximately 5 minutes. Additional local anesthesia (2% procaine or lidocaine) is provided as needed.
The animals are placed in plastic restraining cages in an upright position. The cannula is attached to a Statham P23Db pressure transducer and pulsatile blood pressure is recorded. […] The vasopressin injections are repeated 30, 60, 90, 120, 180, 240 and 300 min. later. Percentage of antagonism by the compound is calculated using the pre-drug vasopressin vasopressor response as 100%.

[5] = 10 mg/kg i.v., VAS 0.01 i.u./kg, 30 min
[6] = 10 mg/kg i.v., VAS 0.02 i.u./kg, 30 min
[7] = 20 mg/kg i.v., VAS 0.01 i.u./kg, 60 min
[8] = 20 mg/kg i.v., VAS 0.01 i.u./kg, 90 min
[9] = 20 mg/kg i.v., VAS 0.01 i.u./kg, 120 min
[10] = 20 mg/kg i.v., VAS 0.01 i.u./kg, 180 min
[11] = 20 mg/kg i.v., VAS 0.01 i.u./kg, 240 min
[12] = 20 mg/kg i.v., VAS 0.01 i.u./kg, 300 min
[13] = 20 mg/kg i.v., VAS 0.02 i.u./kg, 60 min
[14] = 20 mg/kg i.v., VAS 0.02 i.u./kg, 90 min
[15] = 20 mg/kg i.v., VAS 0.02 i.u./kg, 120 min
[16] = 20 mg/kg i.v., VAS 0.02 i.u./kg, 180 min
[17] = 20 mg/kg i.v., VAS 0.02 i.u./kg, 240 min
[18] = 20 mg/kg i.v., VAS 0.02 i.u./kg, 300 min

vasopressin V1 receptor (rat liver plasma membranes), sequence (P30560 whole entry): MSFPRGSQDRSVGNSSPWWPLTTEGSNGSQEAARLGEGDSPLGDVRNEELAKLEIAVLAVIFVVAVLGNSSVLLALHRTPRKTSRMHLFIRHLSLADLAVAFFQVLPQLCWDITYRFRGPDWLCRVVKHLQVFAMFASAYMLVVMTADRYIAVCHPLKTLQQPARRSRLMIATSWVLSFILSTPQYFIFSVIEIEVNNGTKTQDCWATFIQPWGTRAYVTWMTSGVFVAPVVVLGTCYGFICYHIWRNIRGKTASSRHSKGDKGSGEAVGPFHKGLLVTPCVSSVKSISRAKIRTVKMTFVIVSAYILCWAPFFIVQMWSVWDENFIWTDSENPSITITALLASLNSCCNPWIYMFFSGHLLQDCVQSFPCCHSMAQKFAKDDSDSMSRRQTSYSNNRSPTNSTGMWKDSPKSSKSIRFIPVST
T1 sequence (Q00788 whole entry): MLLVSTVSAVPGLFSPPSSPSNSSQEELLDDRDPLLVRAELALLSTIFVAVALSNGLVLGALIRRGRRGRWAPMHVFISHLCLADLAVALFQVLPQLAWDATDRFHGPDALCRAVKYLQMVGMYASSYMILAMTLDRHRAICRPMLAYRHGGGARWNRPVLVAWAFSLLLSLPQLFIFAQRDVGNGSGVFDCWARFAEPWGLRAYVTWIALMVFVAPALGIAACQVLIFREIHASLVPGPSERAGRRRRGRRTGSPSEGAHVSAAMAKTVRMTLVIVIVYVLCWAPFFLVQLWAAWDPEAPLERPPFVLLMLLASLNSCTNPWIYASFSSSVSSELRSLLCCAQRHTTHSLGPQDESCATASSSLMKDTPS

SMILES: Cc1ccccc1NC(=O)c1ccc(C(=O)N2Cc3ccccc3Cc3ccccc32)cc1 [Example 123, 4-[(6,11-Dihydro-5H-dibenz[b,e]azepin-5-yl)-carbonyl]-N-(2-methylphenyl)benzamide]
IC50 [1]: 43 nM
IC50 [2]: 190 nM
Osmolality ([3]; 10 mg/kg orally): 1125 mOsm/kg
Urine Volume ([3]; 10 mg/kg orally): 5.8 ml/4 hrs.
Average Change [4, 5]: 17.5
Inhibition [4, 5]: 0%
Average Change [4, 6]: 20
Inhibition [4, 6]: 39%
Average Change [4, 7]: 6
Inhibition [4, 7]: 66%
Average Change [4, 8]: 6
Inhibition [4, 8]: 66%
Average Change [4, 9]: 5
Inhibition [4, 9]: 71%
Average Change [4, 10]: 4
Inhibition [4, 10]: 77%
Average Change [4, 11]: 8
Inhibition [4, 11]: 54%
Average Change [4, 12]: 8
Inhibition [4, 12]: 54%
Average Change [4, 13]: 6
Inhibition [4, 13]: 82%
Average Change [4, 14]: 7
Inhibition [4, 14]: 79%
Average Change [4, 15]: 4.5
Inhibition [4, 15]: 86%
Average Change [4, 16]: 6.5
Inhibition [4, 16]: 80%
Average Change [4, 17]: 6.5
Inhibition [4, 17]: 80%
Average Change [4, 18]: 8
Inhibition [4, 18]: 76%

IC50 [1]: 16 nM
IC50 [2]: 27 nM
SMILES: Cc1ccccc1C(=O)Nc1ccc(C(=O)N2Cc3ccccc3Cc3cc(Cl)ccc32)cc1 [Example 136]
Osmolality ([3]; 30 mg/kg orally): 306 mOsm/kg
Urine Volume ([3]; 30 mg/kg orally): 19 ml/4 hrs.
MAX % Inhibition ([4]; 10 mg/kg i.v.): 81%
Time of max % inhibition ([4]; 10 mg/kg i.v.): 30 min
